Test results reported in publication PMC9767876, “Development of a robust and convenient dual-reporter high-throughput screening assay for SARS-CoV-2 antiviral drug discovery” (Antiviral Research, 2023).
Like-named read-outs stand apart in the source and are kept apart here.

Key:
[1] = test system: SARS-CoV-2_mNeonGreen virus (Wuhan strain); experiment: microbe, parasite or virus in culture; format: cell-based; details: for EC50: read-out: EC50 Mean ± SD (antiviral activity)
in vitro = details: human
[2] = test system: A549+hACE2+hTMPRSS2_mCherry cells
[3] = Severe acute respiratory syndrome coronavirus 2

Work on CC(C)(C)[C@H](NC(=O)C(F)(F)F)C(=O)N1C[C@H]2[C@@H]([C@H]1C(=O)N[C@H](C#N)C[C@@H]1CCNC1=O)C2(C)C [Nirmatrelvir] yielded an EC50 [1, 3] of 120 ± 17 nM and a CC50 (in vitro) of over 50000 nM.
Compound CC(C)C(=O)OC[C@H]1O[C@@H](n2ccc(NO)nc2=O)[C@H](O)[C@@H]1O [Molnupiravir] has an EC50 [1, 3] of 1260 ± 230 nM and a CC50 (in vitro) of over 50000 nM.
With C/C=C/C[C@@H](C)[C@@H](O)[C@H]1C(=O)N[C@@H](CC)C(=O)N(C)[C@H](C)C(=O)N(CC)[C@@H](C(C)C)C(=O)N[C@@H](C(C)C)C(=O)N(C)[C@@H](CC(C)C)C(=O)N[C@@H](C)C(=O)N[C@H](C)C(=O)N(C)[C@@H](CC(C)C)C(=O)N(C)[C@@H](CC(C)C)C(=O)N(C)[C@@H](C(C)C)C(=O)N1C [Alisporivir] the EC50 [1, 3] was 1460 ± 130 nM and the CC50 (in vitro) was 23800 ± 4750 nM.
With COc1cccc2[nH]c(C(=O)N[C@@H](CC(C)C)C(=O)N[C@@H](C[C@@H]3CCNC3=O)C(=O)CO)cc12 [PF-00835231] the CC50 [2] was over 50000 nM, the “selectivity index (SI)” value [1] was over 115 and the EC50 [1] was 430 ± 80 nM.
For CCC(CC)COC(=O)[C@H](C)N[P@](=O)(OC[C@H]1O[C@@](C#N)(c2ccc3c(N)ncnn23)[C@H](O)[C@@H]1O)Oc1ccccc1 [Remdesivir], the EC50 [1, 3] was 40 ± 5 nM and the CC50 (in vitro) was over 50000 nM.
In the case of N#C[C@@]1(c2ccc3c(N)ncnn23)O[C@H](CO)[C@@H](O)[C@H]1O [GS-441524], the “selectivity index (SI)” value [1] is reported as over 30, the EC50 [1, 3] is reported as 1660 ± 420 nM and the CC50 (in vitro) is reported as over 50000 nM.
CN(C)C(=O)COC(=O)Cc1ccc(OC(=O)c2ccc(NC(=N)N)cc2)cc1 [Camostat] gave an EC50 [1, 3] of over 50000 nM and a CC50 (in vitro) of over 50000 nM.
For Cn1cnc(Cn2c(=O)[nH]/c(=N\c3cc4cn(C)nc4cc3Cl)n(Cc3cc(F)c(F)cc3F)c2=O)n1 [Ensitrelvir], the EC50 [1, 3] was 260 ± 43 nM and the CC50 (in vitro) was over 50000 nM.
In the case of CCn1c(CO)nn(-c2cc(O[C@@H](C)C(F)(F)F)c(C(=O)Nc3c(F)cccc3Cl)cc2F)c1=O [BAY-2402234], the EC50 [1] is reported as 5 ± 1 nM.
